# Reference: PubChem BioAssay AID248 (DTP/NCI, 2004)
# Where “and” joins values, the source holds several entries; their conditions need not be identical. Equal values may be shown once. Inconclusive results and toxic doses are left out. Square brackets hold non-standard residues; d marks the D form. Peptide text beside a SMILES is read from it. ξ: configuration not given here. ξV = CC(C)C(N)C(=O)O
# System: L1210 leukemia ip in BDF1 mice, survival T/C
# Assay: NCI In Vivo Anticancer Drug Screen. Data for tumor model L1210 Leukemia (intraperitoneal) in B6D2F1 (BDF1) mice
# Conditions: endpoint: mean survival time, higher = longer survival
# How it was run: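 Transplanted-tumor mice were given test agent; controls received vehicle only. Survival readings from the two groups were divided (treated over control).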
# [1] = dose: 25.0 mg/kg/injection, schedule: Q04DX003 (ip), vehicle: saline with Tween-80
# [2] = dose: 50.0 mg/kg/injection, schedule: Q04DX003 (ip), vehicle: saline with Tween-80
# [3] = dose: 100.0 mg/kg/injection, schedule: Q04DX003 (ip), vehicle: saline
# [4] = dose: 200.0 mg/kg/injection, schedule: Q04DX003 (ip), vehicle: saline
# [5] = dose: 400.0 mg/kg/injection, schedule: Q04DX003 (ip), vehicle: saline
# [6] = dose: 100.0 mg/kg/injection, schedule: Q04DX003 (ip), vehicle: Klucel (hydroxypropylcellulose) (HPC)
# [7] = dose: 200.0 mg/kg/injection, schedule: Q04DX003 (ip), vehicle: Klucel (hydroxypropylcellulose) (HPC)
# [8] = dose: 400.0 mg/kg/injection, schedule: Q04DX003 (ip), vehicle: Klucel (hydroxypropylcellulose) (HPC)
# [9] = dose: 25.0 mg/kg/injection, schedule: Q04DX002 (ip), vehicle: Klucel (hydroxypropylcellulose) (HPC)
# [10] = dose: 50.0 mg/kg/injection, schedule: Q04DX002 (ip), vehicle: Klucel (hydroxypropylcellulose) (HPC)
# [11] = dose: 100.0 mg/kg/injection, schedule: Q04DX003 (ip), vehicle: saline with Tween-80
# [12] = dose: 100.0 mg/kg/injection, schedule: Q04DX002 (ip), vehicle: Klucel (hydroxypropylcellulose) (HPC)
# [13] = dose: 200.0 mg/kg/injection, schedule: Q04DX002 (ip), vehicle: Klucel (hydroxypropylcellulose) (HPC)
# [14] = dose: 400.0 mg/kg/injection, schedule: Q04DX002 (ip), vehicle: Klucel (hydroxypropylcellulose) (HPC)
# [15] = dose: 100.0 mg/kg/injection, schedule: Q01DX009 (ip), vehicle: Klucel (hydroxypropylcellulose) (HPC)
# [16] = dose: 200.0 mg/kg/injection, schedule: Q01DX009 (ip), vehicle: Klucel (hydroxypropylcellulose) (HPC)
# [17] = dose: 400.0 mg/kg/injection, schedule: Q01DX009 (ip), vehicle: Klucel (hydroxypropylcellulose) (HPC)
# [18] = dose: 100.0 mg/kg/injection, schedule: Q01DX001 (ip), vehicle: saline
# [19] = dose: 200.0 mg/kg/injection, schedule: Q01DX001 (ip), vehicle: saline
# [20] = dose: 400.0 mg/kg/injection, schedule: Q01DX001 (ip), vehicle: saline
compound,measurement,setting,value
CC[PH+]1c2ccccc2Oc2ccccc21.CC[PH+]1c2ccccc2Oc2ccccc21.[Br][Pd][Br],T/C,"dose: 12.5 mg/kg/injection, schedule: Q04DX003 (ip), vehicle: saline with Tween-80",98 % of control
same,T/C,[1],98 % of control
same,T/C,[2],98 % of control
CC(C)C(N)C(=O)NCC(=O)NCC(=O)O (stereo not drawn) (H-[ξV]-Gly-Gly-OH),T/C,"dose: 100.0 mg/kg/injection, schedule: Q01DX009 (ip), vehicle: saline",98 % of control
same,T/C,[3],102 % of control
same,T/C,"dose: 200.0 mg/kg/injection, schedule: Q01DX009 (ip), vehicle: saline",96 % of control
same,T/C,[4],94 % of control
same,T/C,"dose: 400.0 mg/kg/injection, schedule: Q01DX009 (ip), vehicle: saline",98 % of control
same,T/C,[5],100 % of control
O=C1NC2(CCc3ccccc32)C(=O)O1 (stereo not drawn),T/C,[6],110 % of control
same,T/C,[7],100 % of control
same,T/C,[8],98 % of control
Nc1nc(NCCCc2ccccc2)c2[nH]cnc2n1,T/C,"dose: 12.5 mg/kg/injection, schedule: Q04DX002 (ip), vehicle: Klucel (hydroxypropylcellulose) (HPC)",98 % of control
same,T/C,[9],95 % of control
same,T/C,[10],102 % of control
NC(=O)/C=C/c1cccnc1,T/C,[3],91 % of control
same,T/C,[4],98 % of control
same,T/C,[5],96 % of control
c1nc(SCSc2ncnc3nc[nH]c23)c2[nH]cnc2n1,T/C,[11],97 % of control
same,T/C,"dose: 200.0 mg/kg/injection, schedule: Q04DX003 (ip), vehicle: saline with Tween-80",90 % of control
same,T/C,"dose: 400.0 mg/kg/injection, schedule: Q04DX003 (ip), vehicle: saline with Tween-80",90 % of control
O/N=C\c1ccc(/C=N/O)cc1,T/C,"dose: 50.0 mg/kg/injection, schedule: Q01DX009 (ip), vehicle: saline with Tween-80",97 % of control
same,T/C,"dose: 100.0 mg/kg/injection, schedule: Q01DX009 (ip), vehicle: saline with Tween-80",93 % of control
same,T/C,"dose: 200.0 mg/kg/injection, schedule: Q01DX009 (ip), vehicle: saline with Tween-80",97 % of control
[O-][N+](=Nc1ccc(Br)cc1)c1ccc(Br)cc1,T/C,[12],95 % of control
same,T/C,[13],100 % of control
same,T/C,[14],89 % of control
CCCCC(CCN1CCCC1)(CNC(=O)CN(CC)CC)c1cccc2ccccc12 (stereo not drawn),T/C,"dose: 25.0 mg/kg/injection, schedule: Q01DX009 (ip), vehicle: saline",94 % of control
same,T/C,[9],103 % of control
same,T/C,"dose: 50.0 mg/kg/injection, schedule: Q01DX009 (ip), vehicle: saline",102 % of control
same,T/C,[10],100 % of control
same,T/C,[12],107 % of control
CC(C)(C)S(=O)(=O)CCCl,T/C,"dose: 75.0 mg/kg/injection, schedule: Q01DX009 (ip), vehicle: Klucel (hydroxypropylcellulose) (HPC)",93 % of control
same,T/C,"dose: 100.0 mg/kg/injection, schedule: Q01DX005 (ip), vehicle: Klucel (hydroxypropylcellulose) (HPC)",96 % of control
same,T/C,[12],88 % of control
same,T/C,"dose: 150.0 mg/kg/injection, schedule: Q01DX009 (ip), vehicle: Klucel (hydroxypropylcellulose) (HPC)",93 % of control
same,T/C,"dose: 200.0 mg/kg/injection, schedule: Q01DX005 (ip), vehicle: Klucel (hydroxypropylcellulose) (HPC)",100 % of control
same,T/C,[13],100 % of control
same,T/C,"dose: 300.0 mg/kg/injection, schedule: Q01DX009 (ip), vehicle: Klucel (hydroxypropylcellulose) (HPC)",96 % of control
same,T/C,"dose: 400.0 mg/kg/injection, schedule: Q01DX005 (ip), vehicle: Klucel (hydroxypropylcellulose) (HPC)",100 % of control
same,T/C,[14],100 % of control
S=C(Nc1ccccc1)Sc1ccc(Cl)cc1,T/C,[1],96 % of control
same,T/C,[2],92 % of control
same,T/C,[11],101 % of control
O=[N+]([O-])/C=C/c1ccc(O)cc1,T/C,"dose: 50.0 mg/kg/injection, schedule: Q01DX015 (ip), vehicle: saline",97 % of control
same,T/C,"dose: 50.0 mg/kg/injection, schedule: Q04DX003 (ip), vehicle: acetone",96 % of control
CC1=CC(O)C(C(C)C)C1 (stereo not drawn),T/C,"dose: 100.0 mg/kg/injection, schedule: Q01DX001 (ip), vehicle: other",102 % of control
same,T/C,"dose: 200.0 mg/kg/injection, schedule: Q01DX001 (ip), vehicle: other",98 % of control
same,T/C,"dose: 400.0 mg/kg/injection, schedule: Q01DX001 (ip), vehicle: other",98 % of control
Cc1ccc(NC(=O)Oc2ccccc2C(N)=O)cc1NC(=O)Oc1ccccc1C(N)=O,T/C,[15],93 % of control
same,T/C,[16],94 % of control
same,T/C,[17],89 % of control
CNC(CCC(=O)O)C(=O)O (stereo not drawn),T/C,[18],89 % of control
same,T/C,[19],96 % of control
same,T/C,[20],91 % of control
COC(=O)c1cc(SC)nc(SC)n1,T/C,[6],90 % of control
same,T/C,[7],111 % of control
same,T/C,[8],101 % of control
CC(C)OC(=O)Oc1c(Cl)c(Cl)c(Cl)c(Cl)c1Cl,T/C,[15],95 % of control
same,T/C,[12],105 % of control
same,T/C,[16],98 % of control
same,T/C,[13],94 % of control
same,T/C,[14],98 % of control
COc1ccc(C(=O)NC2C(OC(C)=O)OC(COC(C)=O)C(OC(C)=O)C2OC(C)=O)cc1 (stereo not drawn),T/C,[18],98 % of control and 101 % of control
same,T/C,[19],96 % of control and 106 % of control
same,T/C,[20],90 % of control and 89 % of control
CCCCC[C@H](O)/C=C/[C@H]1[C@H](O)CC(=O)[C@@H]1C/C=C\CCCC(=O)O,T/C,"dose: 0.37 mg/kg/injection, schedule: Q04DX002 (ip), vehicle: Klucel (hydroxypropylcellulose) (HPC)",100 % of control
same,T/C,"dose: 0.75 mg/kg/injection, schedule: Q04DX002 (ip), vehicle: Klucel (hydroxypropylcellulose) (HPC)",103 % of control
same,T/C,"dose: 1.5 mg/kg/injection, schedule: Q04DX002 (ip), vehicle: Klucel (hydroxypropylcellulose) (HPC)",111 % of control
same,T/C,"dose: 3.0 mg/kg/injection, schedule: Q04DX002 (ip), vehicle: Klucel (hydroxypropylcellulose) (HPC)",118 % of control
same,T/C,"dose: 6.0 mg/kg/injection, schedule: Q04DX002 (ip), vehicle: Klucel (hydroxypropylcellulose) (HPC)",96 % of control
same,T/C,"dose: 12.0 mg/kg/injection, schedule: Q04DX002 (ip), vehicle: Klucel (hydroxypropylcellulose) (HPC)",96 % of control
same,T/C,"dose: 24.0 mg/kg/injection, schedule: Q04DX002 (ip), vehicle: Klucel (hydroxypropylcellulose) (HPC)",100 % of control
same,T/C,"dose: 25.0 mg/kg/injection, schedule: Q04DX002 (ip), vehicle: saline with Tween-80",98 % of control
same,T/C,"dose: 50.0 mg/kg/injection, schedule: Q04DX002 (ip), vehicle: saline with Tween-80",98 % of control
same,T/C,"dose: 100.0 mg/kg/injection, schedule: Q04DX002 (ip), vehicle: saline with Tween-80",105 % of control
same,T/C,"dose: 200.0 mg/kg/injection, schedule: Q04DX002 (ip), vehicle: saline with Tween-80",102 % of control
same,T/C,"dose: 400.0 mg/kg/injection, schedule: Q04DX002 (ip), vehicle: saline with Tween-80",98 % of control
CC(C)C(O)c1c[nH]c(=O)[nH]c1=O (stereo not drawn),T/C,[15],91 % of control
same,T/C,[16],105 % of control
same,T/C,[17],96 % of control
CS(=O)(=O)OCCN(CCOS(C)(=O)=O)c1ccc(C=Nc2ccc(C(=O)O)c(O)c2)cc1,T/C,"dose: 6.25 mg/kg/injection, schedule: Q04DX003 (ip), vehicle: saline with Tween-80",117 % of control
same,T/C,"dose: 12.0 mg/kg/injection, schedule: Q01DX009 (ip), vehicle: saline with Tween-80",168 % of control
same,T/C,"dose: 16.5 mg/kg/injection, schedule: Q04DX003 (ip), vehicle: saline with Tween-80",112 % of control
same,T/C,"dose: 18.0 mg/kg/injection, schedule: Q01DX009 (ip), vehicle: saline with Tween-80",170 % of control
same,T/C,[1],121 % of control
same,T/C,"dose: 37.5 mg/kg/injection, schedule: Q04DX003 (ip), vehicle: saline with Tween-80",113 % of control
CCOC(=O)c1ccc(Nc2sc(C(=O)c3cccc([N+](=O)[O-])c3)c(N)c2C#N)cc1,T/C,[12],101 % of control
same,T/C,[13],92 % of control
same,T/C,[14],92 % of control
Cc1c2cccc(Sc3ccc(F)cc3)c2c2c3c(cccc13)[S+](c1ccc(F)cc1)C2 (stereo not drawn),T/C,"dose: 12.5 mg/kg/injection, schedule: Q01DX001 (ip), vehicle: Klucel (hydroxypropylcellulose) (HPC)",100 % of control
same,T/C,"dose: 25.0 mg/kg/injection, schedule: Q01DX001 (ip), vehicle: Klucel (hydroxypropylcellulose) (HPC)",94 % of control
same,T/C,"dose: 50.0 mg/kg/injection, schedule: Q01DX001 (ip), vehicle: Klucel (hydroxypropylcellulose) (HPC)",90 % of control
